Data taken from US10759785B2, “Compounds” (ENTERPRISE THERAPEUTICS LIMITED, priority 2016, dated 2020).
Structures can show the parent of a compound that is named as a salt.

What was measured:
Format in all cases: in vitro ADME
[1] = Microsomal stability (rat microsomes); details: pH 7.4, 1 μM test compound, 0.5 mg/mL protein, 1 mM NADPH, 37° C., read-out: Averages. Mic Half Life Rat
Description: (§1) Example 28—Microsomal Stability
(§2) Microsomes (rat and human) were obtained from Bioreclamation. Test compound stock solutions in DMSO (10 mM) were diluted with DMSO to 2 mM. Further dilution was completed to achieve a 100 μM stock (final concentrations; 91.5% Acetonitrile: 8.5% DMSO). Final test compound concentration in incubation was 1 μM (<0.1% DMSO). The following probe substrates were used: verapamil, propranolol, metoprolol and phenacetin (rat) at a final incubation concentration of 1 μM. Assay buffer—Solution 1: 17.4 g potassium phosphate dibasic anhydrous (K2HPO4, 0.1 M) dissolved in 1 L deionised water. Solution 2: 13.6 g potassium phosphate monobasic anhydrous (KH2PO4, 0.1 M) dissolved in 1 L deionised water. Potassium phosphate solutions 1 and 2 were combined to form a pH 7.42 solution at 37° C. pH 7.4 with 2 mM magnesium chloride. NADPH (10 mM)—diluted in deionised water. Frozen microsomes were thawed at 37° C. Microsomes were diluted in assay buffer to achieve a final protein concentration of 0.5 mg/mL and 1 mM NADPH. The following procedure was completed on a Perkin Elmer Janus robotic platform in 96 well format: The microsomal incubation plate was transferred to a heater shaker at 300 rpm and solution heated to 37° C. for 10 min pre-warm. A no co-factor control at 0 and 45 min and one replicates of each test compound was included in every assay. Microsomes were incubated at 37° C., on a shaker set at 300 rpm throughout the assay. At each timepoint (0, 5, 15, 30, 45 min) 50 μL of sample was removed from the 96-well and added to 200 μL of quench solution (acetonitrile containing 0.1% formic acid and imipramine/labetalol, 200 nM). Samples were diluted 1:1 with water using the Janus Robot and analysed by LC-MS/MS.

[2] = Hepatic stability (rat cryopreserved hepatocytes); details: pH 7.4, 1 μM test compound, 1×10^6 cells/mL, 37° C., read-out: Averages. Hep Half Life Rat
Description: (§3) Example 29—Hepatic Stability
(§4) Cryopreserved hepatocytes (rat and human) were obtained from Bioreclamation. Test compound stock solutions in DMSO (10 mM) were diluted with DMSO to 4 mM. Further dilution was completed to achieve a 100 μM stock (5 μL of 4 mM in 195 μL of 50:50 DMSO:hepatocyte buffer). Final test compound concentration in incubation was 1 μM. The following probe substrates were used: testosterone and carbamazepine at a final incubation concentration of 1 μM. Hepatocyte buffer was prepared (Williams E media containing phenol red and Glutamax™, 15 mM HEPES, warmed to 37° C., pH7.4 with NaOH). Cells were removed from liquid nitrogen, thawed in a waterbath, decanted into 50 mL of pre-warmed Cryopreserved Hepatocyte Recovery Media (LifeTechnologies) and centrifuged. Supernatant fraction was removed, cells were re-suspended in hepatocyte buffer and counted by trypan blue exclusion. Cell viability of >80% was required for all assays. Cells were re-suspended to 1×10^6/mL and 198 μL cell suspension added to each 96-well. 2 μL of 100 μM compound stock solution was added to relevant wells to initiate the incubation. A no cell control and two replicates of each test compound was included in every assay. Cells were incubated at 37° C., on a shaker set at 300 rpm. At each timepoint (0, 15, 30, 45, 60, 90 min) 20 μL of sample was removed from the 96-well and added to 80 μL of quench solution (acetonitrile containing 0.1% formic acid and imipramine/labetalol, 200 nM). Samples were diluted 1:1 with water using the Janus Robot and analysed by LC-MS/MS.

[3] = Hepatic stability (human cryopreserved hepatocytes); details: 1×10^6 cells/mL, 37° C.; for half-life at 1 μM: cryopreserved hepatocytes, pH 7.4, 1 μM test compound, read-out: Averages. Hep Half Life Human; for Averages. Hep Half Life Human: 1 μM test compound
Description: as §3, §4

[4] = Microsomal stability (human microsomes); details: 0.5 mg/mL protein, 1 mM NADPH, 37° C.; for half-life at 1 μM: pH 7.4, 1 μM test compound, read-out: Averages. Mic Half Life Human; for Averages. Mic Half Life Human: 1 μM test compound
Description: as §1, §2

Compound	half-life at 1 μM [1] [min]	half-life at 1 μM [2] [min]	half-life at 1 μM [3] [min]	half-life at 1 μM [4] [min]	Averages. Hep Half Life Human [3] [min]	Averages. Mic Half Life Human [4] [min]
CCn1c(CNC(=O)c2nc(Br)cnc2N)[n+](CC)c2ccc(OC)cc21.O=C[O-] [Example 2, 2-{[(3-amino-6-bromopyrazin-2-yl)formamido]methyl}-1,3-diethyl-6-methoxy-1H-1,3-benzodiazol-3-ium formate]	3	5	90	58		
CCn1c(CNC(=O)c2nc(Br)cnc2N)[n+](CCO)c2ccc(OC)cc21.O=C[O-] [Example 3, 2-{[(3-amino-6-bromopyrazin-2-yl)formamido]methyl}-1-ethyl-3-(2-hydroxyethyl)-6-methoxy-1H-1,3-benzodiazol-3-ium formate]	4	13		89	240	
CCn1c(CNC(=O)c2nc(Br)cnc2N)[n+](CCOCCOCCO)c2ccc(OC)cc21.O=C[O-] [Example 4, 2-{[(3-amino-6-bromopyrazin-2-yl)formamido]methyl}-1-ethyl-3-{2-[2-(2-hydroxyethoxy)ethoxy]ethyl}-6-methoxy-1H-1,3-benzodiazol-3-ium formate]	8	16		86	240	
CCn1c(CNC(=O)c2nc(Cl)cnc2N)[n+](C)c2ccc(OC)cc21.[I-] [Example 5, 2-{[(3-amino-6-chloropyrazin-2-yl)formamido]methyl}-1-ethyl-6-methoxy-3-methyl-1H-1,3-benzodiazol-3-ium iodide]	4	5	68	12		
CCn1c(CNC(=O)c2nc(C)cnc2N)[n+](C)c2ccc(OC)cc21.[I-] [Example 7, 2-{[(3-amino-6-methylpyrazin-2-yl)formamido]methyl}-1-ethyl-6-methoxy-3-methyl-1H-1,3-benzodiazol-3-ium iodide]	7	16	129	22		
CCc1cnc(N)c(C(=O)NCc2n(CC)c3cc(OC)ccc3[n+]2C)n1.[I-] [Example 8, 2-{[(3-amino-6-ethylpyrazin-2-yl)formamido]methyl}-1-ethyl-6-methoxy-3-methyl-1H-1,3-benzodiazol-3-ium iodide]	3			23		
CCn1c(CNC(=O)c2nc(SC)cnc2N)[n+](C)c2ccc(OC)cc21.[I-] [Example 9, 2-({[3-amino-6-(methylsulfanyl)pyrazin-2-yl]formamido}methyl)-1-ethyl-6-methoxy-3-methyl-1H-1,3-benzodiazol-3-ium iodide]	3			5		
CCn1c(CNC(=O)c2nc(Br)cnc2N)[n+](C)c2ccc(Cl)cc21.O=CO.O=C[O-] [Example 11, 2-{[(3-amino-6-bromopyrazin-2-yl)formamido]methyl}-6-chloro-1-ethyl-3-methyl-1H-1,3-benzodiazol-3-ium formic acid formate]	4	6			240	138
CCn1c(CNC(=O)c2nc(Br)cnc2N)[n+](C)c2ccc(F)cc21.O=C[O-] [Example 12, 2-{[(3-amino-6-bromopyrazin-2-yl)formamido]methyl}-1-ethyl-6-fluoro-3-methyl-1H-1,3-benzodiazol-3-ium formate]	4			111		
CCn1c(CNC(=O)c2nc(Br)cnc2N)[n+](C)c2ccc(C(F)(F)F)cc21.[I-] [Example 13, 2-{[(3-amino-6-bromopyrazin-2-yl)formamido]methyl}-1-ethyl-3-methyl-6-(trifluoromethyl)-1H-1,3-benzodiazol-3-ium iodide]	5	14			240	138
CCn1c(CNC(=O)c2nc(Br)cnc2N)[n+](C)c2ccc(OC(F)(F)F)cc21.O=C[O-] [Example 14, 2-{[(3-amino-6-bromopyrazin-2-yl)formamido]methyl}-1-ethyl-3-methyl-6-(trifluoromethoxy)-1H-1,3-benzodiazol-3-ium formate]	11	28	205			138
CCn1c(CNC(=O)c2nc(Br)cnc2N)[n+](CC)c2ccc(C(=O)OC)cc21.[I-] [Example 15, 2-{[(3-amino-6-bromopyrazin-2-yl)formamido]methyl}-1,3-diethyl-6-(methoxycarbonyl)-1H-1,3-benzodiazol-3-ium iodide]	11	14	154			138
CCn1c(CNC(=O)c2nc(Br)cnc2N)[n+](CC)c2ccc(C(=O)N[C@@H]3CCOC3=O)cc21 [Example 17, 2-{[(3-amino-6-bromopyrazin-2-yl)formamido]methyl}-1,3-diethyl-6-{[(3R)-2-oxooxolan-3-yl]carbamoyl}-1H-1,3-benzodiazol-3-ium formate]	29	32	101	135		
CCn1c(CNC(=O)c2nc(Br)cnc2N)[n+](CC)c2ccc(C(=O)N[C@H]3CCOC3=O)cc21 [Example 18, 2-{[(3-amino-6-bromopyrazin-2-yl)formamido]methyl}-1,3-diethyl-6-{[(3S)-2-oxooxolan-3-yl]carbamoyl}-1H-1,3-benzodiazol-3-ium formate]	61	46	137	> 138		
CCn1c(CNC(=O)c2nc(Br)cnc2N)[n+](Cc2ccccc2)c2ccc(C(F)(F)F)cc21.O=C[O-] [Example 19, 2-{[(3-Amino-6-bromopyrazin-2-yl)formamido]methyl}-3-benzyl-1-ethyl-6-(trifluoromethyl)-1H-1,3-benzodiazol-3-ium formate]		17			240	
CCn1c(CNC(=O)c2nc(Br)cnc2N)[n+](CC)c2ccc(-c3cnn(C4CCN(C(=O)OC(C)(C)C)CC4)c3)cc21.[I-] [Example 20, 2-{[(3-amino-6-bromopyrazin-2-yl)formamido]methyl}-6-(1-{1-[(tert-butoxy)carbonyl]piperidin-4-yl}-1H-pyrazol-4-yl)-1,3-diethyl-1H-1,3-benzodiazol-3-ium iodide]	61	20	70	> 138		
CCn1c(CNC(=O)c2nc(Br)cnc2N)[n+](CC)c2ccc(-c3cnn(C4CCNCC4)c3)cc21.Cl.[I-] [Example 21, 2-{[(3-amino-6-bromopyrazin-2-yl)formamido]methyl}-1,3-diethyl-6-[1-(piperidin-4-yl)-1H-pyrazol-4-yl]-1H-1,3-benzodiazol-3-ium hydrochloride iodide]	77	25	66	92		
